Results from ChEMBL document CHEMBL1135397, “Novel 1-hydroxyazole bioisosteres of glutamic acid. Synthesis, protolytic properties, and pharmacology” (J Med Chem, 2002).

What was measured:
[1] = molecular target: Glutamate receptor ionotropic, kainate; experiment: Binding affinity for Ionotropic glutamate receptor using [3H]- kainic acid; type: protein-complex assay, Rattus norvegicus
[2] = Measure of synaptosomal Glu uptake system using [3H]- -D-aspartic acid as radioligand
Rattus norvegicus = species: Rattus norvegicus; experiment: EC50 value was measured in rat cortical wedge preparation; type: functional
[3] = molecular target: Glutamate receptor ionotropic, AMPA (Rattus norvegicus, UniProt P19490+P19491+P19492+P19493)
[4] = molecular target: Excitatory amino acid transporter 2 (Homo sapiens, UniProt P43004); experiment: Binding affinity for Excitatory amino acid transporter 2 (EAAT-2) in Glu uptake system
[5] = molecular target: T1, Excitatory amino acid transporter 3 (Homo sapiens, UniProt P43005); experiment: Binding affinity for Excitatory amino acid transporter 3 (EAAT-3) in Glu uptake system
T1 sequence (P43005 whole entry): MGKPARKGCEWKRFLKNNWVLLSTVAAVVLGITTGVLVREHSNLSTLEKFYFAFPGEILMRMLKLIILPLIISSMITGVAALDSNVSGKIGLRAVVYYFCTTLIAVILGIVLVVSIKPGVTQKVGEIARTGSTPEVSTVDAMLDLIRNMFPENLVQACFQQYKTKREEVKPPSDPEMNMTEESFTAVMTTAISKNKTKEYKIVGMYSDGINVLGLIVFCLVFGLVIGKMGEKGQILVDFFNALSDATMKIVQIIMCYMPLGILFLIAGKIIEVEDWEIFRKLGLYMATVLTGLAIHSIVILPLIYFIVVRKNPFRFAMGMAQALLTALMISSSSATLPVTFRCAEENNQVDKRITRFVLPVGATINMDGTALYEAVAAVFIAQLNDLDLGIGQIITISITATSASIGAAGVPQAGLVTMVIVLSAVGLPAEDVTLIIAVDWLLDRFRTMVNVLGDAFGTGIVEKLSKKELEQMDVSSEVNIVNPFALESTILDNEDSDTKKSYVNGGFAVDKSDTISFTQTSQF

Glutamate NMDA receptor = experiment: Binding affinity for N-methyl-D-aspartate glutamate receptor (NMDA) using [3H]- CPP; type: protein-complex assay, Rattus norvegicus
[6] = molecular target: Excitatory amino acid transporter 1 (Homo sapiens, UniProt P43003); experiment: Binding affinity for Excitatory amino acid transporter 1 (EAAT-1) in Glu uptake system
physchem [7] = experiment: physchem
physchem [8] = experiment: physchem; remark: listed apart in the source
physchem [9] = experiment: physchem; remark: listed apart in the source
[10] = Measure of synaptosomal Glu uptake system using [3H]- -D-aspartic acid as radioligand.; type: functional

Sequence of Excitatory amino acid transporter 2 (P43004 whole entry): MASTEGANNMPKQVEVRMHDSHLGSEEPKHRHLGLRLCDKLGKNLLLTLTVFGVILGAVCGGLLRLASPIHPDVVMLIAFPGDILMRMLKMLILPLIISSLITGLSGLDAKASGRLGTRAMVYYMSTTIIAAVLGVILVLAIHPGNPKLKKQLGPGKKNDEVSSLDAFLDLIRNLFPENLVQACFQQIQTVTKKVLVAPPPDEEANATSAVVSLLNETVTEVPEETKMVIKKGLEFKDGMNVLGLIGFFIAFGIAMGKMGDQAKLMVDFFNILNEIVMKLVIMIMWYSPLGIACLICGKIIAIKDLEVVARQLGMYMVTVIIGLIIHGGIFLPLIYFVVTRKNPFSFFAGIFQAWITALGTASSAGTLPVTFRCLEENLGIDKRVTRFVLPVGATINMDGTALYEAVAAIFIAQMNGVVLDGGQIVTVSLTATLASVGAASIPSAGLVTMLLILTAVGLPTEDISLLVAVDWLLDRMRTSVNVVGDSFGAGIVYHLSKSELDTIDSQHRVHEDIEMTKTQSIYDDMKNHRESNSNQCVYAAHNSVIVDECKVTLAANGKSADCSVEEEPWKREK
Sequence of Excitatory amino acid transporter 1 (P43003 whole entry): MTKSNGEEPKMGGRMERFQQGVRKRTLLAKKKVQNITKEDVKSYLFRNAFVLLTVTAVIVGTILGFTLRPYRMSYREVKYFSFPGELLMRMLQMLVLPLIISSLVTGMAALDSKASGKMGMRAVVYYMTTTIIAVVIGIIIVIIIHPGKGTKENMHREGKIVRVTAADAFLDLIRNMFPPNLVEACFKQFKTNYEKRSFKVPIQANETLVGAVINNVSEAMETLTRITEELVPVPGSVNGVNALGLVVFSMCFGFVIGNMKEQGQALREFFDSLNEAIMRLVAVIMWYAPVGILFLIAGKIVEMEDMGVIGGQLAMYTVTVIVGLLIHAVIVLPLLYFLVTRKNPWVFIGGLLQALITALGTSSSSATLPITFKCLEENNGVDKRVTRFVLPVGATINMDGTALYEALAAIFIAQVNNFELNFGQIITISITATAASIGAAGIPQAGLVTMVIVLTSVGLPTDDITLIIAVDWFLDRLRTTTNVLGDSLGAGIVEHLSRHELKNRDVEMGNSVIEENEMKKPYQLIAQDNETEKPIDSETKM

IC50 [1]	IC50 [2]	EC50 (Rattus norvegicus)	IC50 [3]	IC50 [4]	IC50 [5]	IC50 (Glutamate NMDA receptor)	IC50 [6]	pKa (physchem [7])	pKa (physchem [8])	pKa (physchem [9])	Compound	IC50 [10]
> 100 µM	> 200 µM	> 1000 µM	> 100 µM	> 1000 µM	> 1000 µM	> 100 µM	> 1000 µM	–	–	–	NC(Cc1cncn1O)C(=O)O (stereo not drawn)	–
> 100 µM	> 200 µM	> 1000 µM	> 100 µM	> 1000 µM	> 1000 µM	> 100 µM	> 1000 µM	–	–	–	Cc1cnc(CC(N)C(=O)O)n1O (stereo not drawn)	–
> 100 µM	> 200 µM	> 1000 µM	> 100 µM	> 1000 µM	> 1000 µM	> 100 µM	> 1000 µM	–	–	–	Cc1ncc(CC(N)C(=O)O)n1O (stereo not drawn)	–
> 100 µM	> 200 µM	> 1000 µM	> 100 µM	> 1000 µM	> 1000 µM	> 100 µM	> 1000 µM	–	–	–	NC(Cc1nccn1O)C(=O)O (stereo not drawn)	–
> 100 µM	> 200 µM	586 µM	2.6 µM	> 1000 µM	> 1000 µM	> 100 µM	> 1000 µM	9.81	5.89	2.05	Cc1cnn(O)c1CC(N)C(=O)O (stereo not drawn)	–
> 100 µM	> 200 µM	280 µM	2.7 µM	430 µM	> 1000 µM	> 100 µM	> 1000 µM	9.48	5.78	1.78	NC(Cc1ccnn1O)C(=O)O (stereo not drawn)	–
47 µM	93 µM	> 1000 µM	0.15 µM	300 µM	> 1000 µM	> 100 µM	100 µM	–	–	–	NC(Cc1cnnn1O)C(=O)O (stereo not drawn)	–
> 100 µM	> 200 µM	> 1000 µM	> 100 µM	> 1000 µM	> 1000 µM	> 100 µM	> 1000 µM	10.2	8.82	2.81	Cc1ncn(O)c1CC(N)C(=O)O (stereo not drawn)	–

Compound	IC50 [1]	IC50 [2]	EC50 (Rattus norvegicus)	IC50 [3]	IC50 [4]	IC50 [5]	IC50 (Glutamate NMDA receptor)	IC50 [6]	pKa (physchem [7])	pKa (physchem [8])	pKa (physchem [9])	IC50 [10]
Cc1nnn(O)c1CC(N)C(=O)O (stereo not drawn)	90 µM	> 200 µM	15 µM	0.13 µM	490 µM	> 1000 µM	> 100 µM	> 1000 µM	9.24	5.07	1.48	–
NC(Cc1conc1O)C(=O)O (stereo not drawn)	> 100 µM	> 200 µM	900 µM	0.27 µM	240 µM	> 1000 µM	> 100 µM	270 µM	–	–	–	–
Cc1onc(O)c1CC(N)C(=O)O [(R,S)-AMPA]	–	–	–	–	> 1000 µM	> 1000 µM	–	> 1000 µM	–	5.12	1.94	> 200 µM
